ChEMBL document CHEMBL5291721, “A preclinical secondary pharmacology resource illuminates target-adverse drug reaction associations of marketed drugs” (Nat Commun, 2023)

Key:
Adenosine receptor A1 = target: T1, Adenosine receptor A1 (Homo sapiens, UniProt P30542)
T1 sequence (P30542 whole entry): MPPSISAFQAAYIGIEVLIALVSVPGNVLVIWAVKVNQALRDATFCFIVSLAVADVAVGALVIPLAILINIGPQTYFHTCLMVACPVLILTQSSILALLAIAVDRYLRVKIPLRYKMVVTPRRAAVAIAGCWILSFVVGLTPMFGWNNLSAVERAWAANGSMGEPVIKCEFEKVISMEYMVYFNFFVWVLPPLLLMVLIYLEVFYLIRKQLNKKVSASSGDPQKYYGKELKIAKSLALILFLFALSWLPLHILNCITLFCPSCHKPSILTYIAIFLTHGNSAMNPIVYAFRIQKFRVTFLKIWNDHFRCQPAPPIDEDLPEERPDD

[1] = target: T2, Alpha-2A adrenergic receptor (Homo sapiens, UniProt P08913); format: functional, cell-based
T2 sequence (P08913 whole entry): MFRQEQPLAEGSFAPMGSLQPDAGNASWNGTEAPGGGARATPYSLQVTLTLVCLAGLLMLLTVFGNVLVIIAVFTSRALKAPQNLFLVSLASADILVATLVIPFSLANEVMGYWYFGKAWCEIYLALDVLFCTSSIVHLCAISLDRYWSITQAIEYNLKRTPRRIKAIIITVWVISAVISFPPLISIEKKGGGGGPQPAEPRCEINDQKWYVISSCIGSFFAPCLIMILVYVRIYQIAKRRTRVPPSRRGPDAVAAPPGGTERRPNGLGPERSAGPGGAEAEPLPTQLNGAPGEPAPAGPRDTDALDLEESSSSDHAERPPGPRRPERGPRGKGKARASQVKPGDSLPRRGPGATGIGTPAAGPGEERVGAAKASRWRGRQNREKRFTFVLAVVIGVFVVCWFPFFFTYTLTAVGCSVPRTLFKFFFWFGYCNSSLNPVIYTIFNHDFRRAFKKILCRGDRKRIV

[2] = target: T3, Prostaglandin G/H synthase 1 (Rattus norvegicus, UniProt Q63921); format: functional
T3 sequence (Q63921 whole entry): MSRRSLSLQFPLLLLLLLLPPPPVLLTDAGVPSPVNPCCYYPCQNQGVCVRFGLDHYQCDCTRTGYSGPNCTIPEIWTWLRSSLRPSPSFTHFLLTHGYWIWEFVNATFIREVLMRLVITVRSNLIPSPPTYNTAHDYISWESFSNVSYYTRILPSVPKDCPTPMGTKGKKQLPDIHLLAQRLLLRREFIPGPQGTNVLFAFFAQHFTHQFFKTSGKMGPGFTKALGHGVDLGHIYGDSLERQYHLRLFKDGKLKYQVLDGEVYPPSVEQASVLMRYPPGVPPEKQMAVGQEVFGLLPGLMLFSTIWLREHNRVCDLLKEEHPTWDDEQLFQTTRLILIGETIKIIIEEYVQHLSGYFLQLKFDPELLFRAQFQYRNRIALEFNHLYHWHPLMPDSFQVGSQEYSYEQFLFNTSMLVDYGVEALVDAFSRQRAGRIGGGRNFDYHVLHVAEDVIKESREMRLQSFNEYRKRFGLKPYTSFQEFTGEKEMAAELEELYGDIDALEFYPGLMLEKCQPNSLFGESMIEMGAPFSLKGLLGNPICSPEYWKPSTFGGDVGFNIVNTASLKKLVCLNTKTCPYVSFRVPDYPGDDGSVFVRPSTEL

[3] = target: Growth hormone secretagogue receptor type 1 (Homo sapiens, UniProt Q92847)
[4] = target: T4, 5-hydroxytryptamine receptor 1A (Homo sapiens, UniProt P08908); format: functional, cell-based
T4 sequence (P08908 whole entry): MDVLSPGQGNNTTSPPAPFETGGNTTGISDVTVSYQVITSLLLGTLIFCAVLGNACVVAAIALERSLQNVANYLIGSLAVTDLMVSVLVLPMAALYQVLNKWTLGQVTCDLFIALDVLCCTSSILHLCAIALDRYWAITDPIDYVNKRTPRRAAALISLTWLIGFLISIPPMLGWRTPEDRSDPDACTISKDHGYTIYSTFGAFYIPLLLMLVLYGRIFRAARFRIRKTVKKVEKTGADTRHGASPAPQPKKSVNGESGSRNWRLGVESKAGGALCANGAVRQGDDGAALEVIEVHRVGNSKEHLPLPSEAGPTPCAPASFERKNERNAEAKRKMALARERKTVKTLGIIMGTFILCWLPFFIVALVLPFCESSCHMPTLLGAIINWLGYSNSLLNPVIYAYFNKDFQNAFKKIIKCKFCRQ

[5] = target: Sodium-dependent dopamine transporter (Homo sapiens, UniProt Q01959)
Adenosine receptor A3 = target: T5, Adenosine receptor A3 (Homo sapiens, UniProt P0DMS8)
T5 sequence (P0DMS8 whole entry): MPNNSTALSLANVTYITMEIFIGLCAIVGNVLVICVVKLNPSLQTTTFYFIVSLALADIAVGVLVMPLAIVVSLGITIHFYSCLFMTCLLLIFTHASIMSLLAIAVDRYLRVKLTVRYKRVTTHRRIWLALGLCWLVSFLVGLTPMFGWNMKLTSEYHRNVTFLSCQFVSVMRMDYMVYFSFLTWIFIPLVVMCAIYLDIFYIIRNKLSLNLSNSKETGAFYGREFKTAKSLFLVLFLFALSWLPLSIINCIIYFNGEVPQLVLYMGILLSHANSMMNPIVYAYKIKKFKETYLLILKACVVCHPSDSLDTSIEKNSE

Bile salt export pump = Bile salt export pump (Homo sapiens, UniProt O95342); format: functional
[6] = target: T6, Cholecystokinin receptor type A (Homo sapiens, UniProt P32238)
T6 sequence (P32238 whole entry): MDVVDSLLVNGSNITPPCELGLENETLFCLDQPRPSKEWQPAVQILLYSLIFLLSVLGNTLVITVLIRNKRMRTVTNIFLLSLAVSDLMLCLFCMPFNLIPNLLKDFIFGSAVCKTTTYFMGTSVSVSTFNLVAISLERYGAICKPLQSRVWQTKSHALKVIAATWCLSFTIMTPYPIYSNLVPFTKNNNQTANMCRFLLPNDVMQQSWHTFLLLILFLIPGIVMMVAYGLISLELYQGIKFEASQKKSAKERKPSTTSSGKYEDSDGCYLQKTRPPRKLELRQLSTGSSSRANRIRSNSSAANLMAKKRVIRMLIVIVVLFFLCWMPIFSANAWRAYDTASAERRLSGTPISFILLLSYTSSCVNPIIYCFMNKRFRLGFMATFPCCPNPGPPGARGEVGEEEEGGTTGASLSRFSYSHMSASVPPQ
Also: assay procedure not described here.

Chain of Growth hormone secretagogue receptor type 1 (Q92847 whole entry): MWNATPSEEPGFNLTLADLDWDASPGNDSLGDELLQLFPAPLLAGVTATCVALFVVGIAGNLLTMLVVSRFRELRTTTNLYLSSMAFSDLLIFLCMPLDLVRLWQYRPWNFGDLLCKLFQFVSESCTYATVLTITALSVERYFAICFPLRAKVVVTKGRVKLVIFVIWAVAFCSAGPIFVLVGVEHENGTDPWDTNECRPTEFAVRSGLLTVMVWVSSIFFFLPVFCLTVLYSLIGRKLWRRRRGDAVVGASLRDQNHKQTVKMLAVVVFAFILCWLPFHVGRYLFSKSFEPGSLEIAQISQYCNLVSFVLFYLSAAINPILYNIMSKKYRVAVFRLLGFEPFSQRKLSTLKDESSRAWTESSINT
Chain of Bile salt export pump (O95342 whole entry): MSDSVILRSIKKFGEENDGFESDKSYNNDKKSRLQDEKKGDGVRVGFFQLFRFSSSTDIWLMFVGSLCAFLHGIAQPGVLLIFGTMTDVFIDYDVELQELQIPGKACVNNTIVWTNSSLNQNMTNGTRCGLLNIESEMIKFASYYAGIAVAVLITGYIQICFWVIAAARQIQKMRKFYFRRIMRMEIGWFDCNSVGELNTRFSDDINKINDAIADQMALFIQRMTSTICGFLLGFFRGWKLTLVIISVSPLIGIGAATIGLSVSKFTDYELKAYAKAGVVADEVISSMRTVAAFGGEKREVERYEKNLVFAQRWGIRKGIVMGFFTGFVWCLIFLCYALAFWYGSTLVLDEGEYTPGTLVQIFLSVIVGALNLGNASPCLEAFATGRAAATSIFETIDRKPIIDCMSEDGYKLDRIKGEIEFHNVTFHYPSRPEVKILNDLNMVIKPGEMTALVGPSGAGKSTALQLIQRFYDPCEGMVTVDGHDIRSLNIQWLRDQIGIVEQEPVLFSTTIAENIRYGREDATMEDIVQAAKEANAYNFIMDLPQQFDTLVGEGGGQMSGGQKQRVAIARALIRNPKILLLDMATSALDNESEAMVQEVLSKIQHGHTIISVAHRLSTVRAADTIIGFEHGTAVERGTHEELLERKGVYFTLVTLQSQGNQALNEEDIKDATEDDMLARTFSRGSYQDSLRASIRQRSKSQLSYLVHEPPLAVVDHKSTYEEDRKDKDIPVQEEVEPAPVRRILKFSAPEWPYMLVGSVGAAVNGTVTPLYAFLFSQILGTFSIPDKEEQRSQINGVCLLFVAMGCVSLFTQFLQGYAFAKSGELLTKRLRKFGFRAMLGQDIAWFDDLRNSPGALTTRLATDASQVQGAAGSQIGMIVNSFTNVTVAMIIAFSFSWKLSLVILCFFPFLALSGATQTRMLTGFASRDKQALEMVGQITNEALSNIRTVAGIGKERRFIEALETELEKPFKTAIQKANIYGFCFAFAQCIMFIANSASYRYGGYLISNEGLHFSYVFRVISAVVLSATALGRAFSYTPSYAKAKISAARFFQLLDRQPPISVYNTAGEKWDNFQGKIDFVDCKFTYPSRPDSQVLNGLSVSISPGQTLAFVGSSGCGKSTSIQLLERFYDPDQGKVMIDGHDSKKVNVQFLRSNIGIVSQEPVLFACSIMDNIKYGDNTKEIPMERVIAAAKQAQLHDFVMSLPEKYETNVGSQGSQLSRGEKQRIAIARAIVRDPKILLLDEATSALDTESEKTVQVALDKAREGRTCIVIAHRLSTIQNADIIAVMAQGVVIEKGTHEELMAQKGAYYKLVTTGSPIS
Chain of Sodium-dependent dopamine transporter (Q01959 whole entry): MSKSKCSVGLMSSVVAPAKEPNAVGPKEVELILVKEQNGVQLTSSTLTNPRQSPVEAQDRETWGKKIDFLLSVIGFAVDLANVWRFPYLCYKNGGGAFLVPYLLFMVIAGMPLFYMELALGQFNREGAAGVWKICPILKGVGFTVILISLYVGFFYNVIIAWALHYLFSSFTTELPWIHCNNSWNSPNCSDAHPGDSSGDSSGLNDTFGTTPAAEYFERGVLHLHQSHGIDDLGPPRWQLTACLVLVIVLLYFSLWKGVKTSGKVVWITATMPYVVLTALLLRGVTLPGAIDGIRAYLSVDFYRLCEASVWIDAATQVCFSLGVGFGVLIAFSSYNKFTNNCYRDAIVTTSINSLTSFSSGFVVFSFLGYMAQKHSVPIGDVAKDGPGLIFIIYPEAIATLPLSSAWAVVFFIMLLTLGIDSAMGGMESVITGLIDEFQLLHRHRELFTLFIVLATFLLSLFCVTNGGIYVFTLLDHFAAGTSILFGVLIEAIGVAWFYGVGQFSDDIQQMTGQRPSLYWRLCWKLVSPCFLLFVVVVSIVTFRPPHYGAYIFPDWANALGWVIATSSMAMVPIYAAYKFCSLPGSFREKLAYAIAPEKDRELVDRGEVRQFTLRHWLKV

Row | AC50 (Adenosine receptor A1) | AC50 [1] | AC50 [2] | AC50 [3] | AC50 [4] | AC50 [5] | AC50 (Adenosine receptor A3) | AC50 (Bile salt export pump) | AC50 [6] | SMILES
1 | > 30 µM | > 10 µM | > 30 µM | > 30 µM | > 10 µM | > 10 µM | > 30 µM | > 300 µM | > 30 µM | CCOC(=O)[C@H](CCc1ccccc1)N[C@@H](C)C(=O)N1CCC[C@H]1C(=O)O
2 | > 30 µM | 1.2 µM | > 30 µM | > 30 µM | > 30 µM | 25 µM | > 30 µM | > 300 µM | > 30 µM | CC(=O)c1ccc2c(c1)N(CCCN1CCN(CCO)CC1)c1ccccc1S2 [ACETOPHENAZINE]
3 | > 30 µM | > 10 µM | > 10 µM | 10.6 µM | > 10 µM | > 30 µM | > 30 µM | 2 µM | 17.6 µM | COC(=O)N[C@H](C(=O)N[C@@H](Cc1ccccc1)[C@@H](O)CN(Cc1ccc(-c2ccccn2)cc1)NC(=O)[C@@H](NC(=O)OC)C(C)(C)C)C(C)(C)C [ATAZANAVIR]
4 | > 30 µM | 0.86 µM | > 30 µM | 14 µM | > 30 µM | 7.3 µM | > 30 µM | > 100 µM | > 30 µM | CN1CCCC(n2nc(Cc3ccc(Cl)cc3)c3ccccc3c2=O)CC1 (stereo not drawn) [AZELASTINE]
5 | > 30 µM | > 10 µM | > 30 µM | > 30 µM | > 10 µM | > 10 µM | > 30 µM | > 300 µM | > 30 µM | CC(C)NCC(O)COc1ccc(COCCOC(C)C)cc1 (stereo not drawn) [BISOPROLOL]
6 | > 30 µM | > 30 µM | > 30 µM | > 30 µM | > 30 µM | > 30 µM | 24 µM | > 300 µM | > 30 µM | N[C@@H](C(=O)N[C@@H]1C(=O)N2C(C(=O)O)=C(Cl)CS[C@H]12)c1ccccc1 [CEFACLOR ANHYDROUS]
7 | > 30 µM | > 10 µM | > 30 µM | > 30 µM | > 10 µM | > 10 µM | > 30 µM | > 300 µM | > 30 µM | CCC[C@@H]1C[C@@H](C(=O)N[C@@H]([C@H]2O[C@H](SC)[C@H](O)[C@@H](O)[C@H]2O)[C@H](C)Cl)N(C)C1 [CLINDAMYCIN]
8 | > 10 µM | > 10 µM | > 10 µM | > 10 µM | > 10 µM | > 10 µM | > 10 µM | 160 µM | > 10 µM | O=C(O)c1cc(-c2ccc(F)cc2F)ccc1O [DIFLUNISAL]
9 | > 30 µM | > 10 µM | > 30 µM | > 30 µM | > 10 µM | > 10 µM | > 30 µM | > 300 µM | > 30 µM | NC(N)=Nc1nc(CSCCC(N)=NS(N)(=O)=O)cs1 [FAMOTIDINE]
10 | > 10 µM | > 10 µM | > 10 µM | > 10 µM | > 10 µM | > 10 µM | > 10 µM | > 300 µM | > 10 µM | C[C@@H]1O[C@@H]1P(=O)(O)O [FOSFOMYCIN]
11 | > 30 µM | > 30 µM | > 30 µM | > 30 µM | > 30 µM | > 30 µM | > 30 µM | 1.7 µM | > 30 µM | COc1ccc2c(c1)C(=O)N(CCc1ccc(S(=O)(=O)NC(=O)NC3CCCCC3)cc1)C(=O)C2(C)C [GLIQUIDONE]

Row | SMILES | AC50 (Adenosine receptor A1) | AC50 [1] | AC50 [2] | AC50 [3] | AC50 [4] | AC50 [5] | AC50 (Adenosine receptor A3) | AC50 (Bile salt export pump) | AC50 [6]
12 | CO/N=C(\C(=O)N[C@@H]1C(=O)N2C(C(=O)[O-])=C(C[N+]3(C)CCCC3)CS[C@H]12)c1csc(N)n1 | > 300 µM | > 300 µM | > 300 µM | > 300 µM | > 300 µM | > 300 µM | > 300 µM | > 300 µM | > 300 µM
13 | C[C@H]1O[C@H](O[C@H]2[C@H](O)[C@@H](O)[C@@H](O[C@H]3[C@H](O)[C@@H](O)C(O)O[C@@H]3CO)O[C@@H]2CO)[C@H](O)[C@@H](O)[C@@H]1N[C@H]1C=C(CO)[C@@H](O)[C@H](O)[C@H]1O (stereo partly drawn) [ACARBOSE] | > 30 µM | > 30 µM | > 30 µM | > 30 µM | > 30 µM | > 30 µM | > 30 µM | > 300 µM | > 30 µM
14 | Oc1ncnc2[nH]ncc12 [ALLOPURINOL] | > 30 µM | > 10 µM | > 30 µM | > 30 µM | > 10 µM | > 10 µM | > 30 µM | > 300 µM | > 30 µM
15 | CN(CCOc1ccc(NS(C)(=O)=O)cc1)CCc1ccc(NS(C)(=O)=O)cc1 [DOFETILIDE] | > 30 µM | > 30 µM | > 30 µM | > 30 µM | > 30 µM | > 10 µM | > 30 µM | > 300 µM | > 30 µM
16 | COC(=O)[C@@H]1CC2=CC(=O)CC[C@]2(C)[C@@]23O[C@@H]2C[C@@]2(C)[C@@H](CC[C@@]24CCC(=O)O4)[C@H]13 [EPLERENONE] | > 30 µM | > 30 µM | > 30 µM | > 30 µM | > 30 µM | > 30 µM | > 30 µM | > 300 µM | > 30 µM
17 | C#C[C@]1(O)CC[C@H]2[C@@H]3CCc4cc(O)ccc4[C@H]3CC[C@@]21C [ETHINYL ESTRADIOL] | > 30 µM | > 10 µM | 24.3 µM | > 30 µM | 5.7 µM | 2.81 µM | 13.5 µM | 38 µM | > 30 µM
